Measured values as given in ChEMBL document CHEMBL1138313, “Cyclization of the acyl glucuronide metabolite of a neutral endopeptidase inhibitor to an electrophilic glutarimide: synthesis, reactivity, and mechanistic analysis” (J Med Chem, 2007).

How the values were obtained:
Format in all cases: ADME, organism-based
[1] = Biodistribution in Wistar rat bile at 50 umol/kg, iv after 1 hr; conditions: read-out: Drug uptake
[2] = Biodistribution in Wistar rat bile at 50 umol/kg, iv after 5 hrs; conditions: read-out: Drug uptake
Rattus norvegicus = assay: Biodistribution in Wistar rat bile at 15 umol/kg, iv; conditions: in vivo
Plasma = assay: Biodistribution in Wistar rat plasma per mL at 15 umol/kg, iv after 5 hrs; conditions: in vivo
[3] = Biodistribution in Wistar rat urine at 15 umol/kg, iv after 5 hrs; conditions: read-out: Drug uptake
[4] = Biodistribution in Wistar rat bile assessed as drug elimination at 15 umol/kg, iv after 1 hr; conditions: read-out: Drug uptake
[5] = Biodistribution in Wistar rat bile assessed as drug elimination at 15 umol/kg, iv after 5 hrs; conditions: read-out: Drug uptake

With `CCC[C@@H]1CC2(CCCC2)C(=O)N(c2nnc(CC)s2)C1=O` the dose excreted at 1 h [1] was 4.5%, the dose excreted at 5 h [2] was 11% and the Drug uptake (Rattus norvegicus) was 6%.

For `CCC[C@H](CC1(C(=O)Nc2nn[14c](CC)s2)CCCC1)C(=O)O`, the Drug uptake (Plasma) was 0.3 %ID, the dose excreted at 5 h [3] was 4.9% and the dose excreted at 1 h [4] was 28.7%. It also gave a dose excreted at 5 h [5] of 75.1%.
